According to EP0565593B1, “REDUCING PESTICIDAL INTERACTIONS IN CROPS” (priority 1990, dated 1992):
Read-outs that look alike come from different tables or passages of the source.

Columns and labels:
Corn = assay: Greenhouse test Procedure VI: biocide and antidote in furrow, herbicide PPI in cover layer (Examples 43-47, 59-61; Tables 42-46, 58-60); format: in vivo; details: for safener efficacy, comparison: COUNTER 15G + PURSUIT/co-herbicides, Example 61; for safening: COUNTER 15G/PURSUIT interaction, Example 47; for % Inhibition Corn: Antidote + Biocide No. 1 in furrow
From the text: This procedure describes interaction among herbicide, biocide and antidote when the herbicide is incorporated in a soil cover layer and the biocide and the antidote are applied in a soil furrow containing crop seed before emergence of the crop. The soil and seeding depth were described in Procedure IV. A first container was designated as an untreated control, a second container was designated as a herbicide control, a third container was designated as a herbicide + biocide control and a fourth container as a herbicide + biocide + antidote test container. The biocide and antidote were formulated as granules. The biocide was applied to the soil furrows of the third and fourth containers at an application rate of 1.1 mg of active compound per cm of row. The antidote was applied to the soil furrow of the fourth container at an application rate of 0.37 mg of active compound per cm of row. A measured amount of the herbicide dispersed or dissolved in acetone was applied to a measured quantity of soil. The quantity of soil treated with the herbicide was thoroughly mixed to incorporate the herbicide. Samples of this soil were used to cover the seed beds of the second, third and fourth containers. For each test series, the seed bed of the first container was likewise covered by a soil layer not treated with herbicide and without biocide or antidote in the soil furrow.
The containers were then placed on a bench in a greenhouse. Watering was by subirrigation plus overhead irrigation after the plants emerged. All treatments were run in duplicate. Plant response was observed according to Procedure IV. Variations in this procedure will be noted in the examples.
In continuing tests to evaluate the variations of this invention, a series of tests were conducted to determine the efficacy of the above safeners in Examples 39-42 to alleviate corn injury induced by the interaction of various additional commercial sulfonylurea herbicides with COUNTER 15G insecticide. In this example, the tests were conducted according to Procedure VI above. In modifications of that procedure, herbicides were applied to soil samples as acetone/water suspensions, incorporated by shaking in a closed container, with subsamples used to cover furrow-treated 10.2 cm pots. Pots were subirrigated followed by overhead misting on days 6-10.
This example was designed to test the safening effect of those above safeners used in this test series to relieve corn injury by negative synergism induced by interaction of COUNTER 15G and three imidazolinone herbicides, i.e., imazaquin and imazapyr (used in the POE tests in Example 41) and AC 263222 (a.i. in CADRE® herbicide). As differing from the tests in Example 41, this test was a PPI test according to Procedure VI described above. Observation of test results (Table 43) were taken thirteen 913) days after in-furrow PPI preparation.
This example describes PPI tests to evaluate said test safeners in this series with analogs of the sulfonamide herbicides tested under POE herbicide application procedures described in Example 42. In these tests, conducted according to Procedure VI described above, Herbicide Nos. 20, 22 and 24 were applied PPI with the insecticide and antidote. Observations of tests results were made thirteen days after PPI initiation.
An additional three (3) sulfonamide herbicide analogs were tested simultaneously and under the same conditions described in Example 45.
Another test of this invention involved the safening effects of the safeners in this series against negative synergy inducted by the interaction of COUNTER 15G and a sulfonylurea herbicide (OUST®), Herbicide No. 13, and PURSUIT, an imidazolinone herbicide, No. 6. Test conditions were the same as those in Examples 43-46. Other procedures for applying herbicidal formulations are as described in Example 42. […]

Velvetleaf (VELE) = assay: Multi-crop greenhouse test, soil-applied (Examples 65, 66; Tables 64, 65); format: in vivo, Abutilon theophrasti; design: inhibition: dose or concentration left out as unconfirmed; details: for inhibition / inhibition at 18 g/ha / inhibition at 70 g/ha / inhibition at 280 g/ha: Abutilon theophrasti; for inhibition at 18 g/ha: Herb. No. 1 0.018 Kg/Ha alone; for inhibition at 70 g/ha: Herb. No. 1 0.07 Kg/Ha alone; for inhibition at 280 g/ha: Herb. No. 1 0.28 Kg/Ha alone
Description: Tests according to this invention in various crops indicate widespread application of the invention. In Examples 62-66 below are described tests with a variety of herbicides contacted with COUNTER® 15G in the presence and absence of MON-7400 (Antidote No. 12); MON-13900 (No. 1); MON-4660 (No. 16) and flurazole (No. 16). Those tests were conducted according to Procedures IV or V described above and illustrated further in other foregoing examples. Plants used in all tests were, for crops (as abbreviated in parentheses); cotton (COTT); soybean (SOBE); CORN, grain sorghum (GRSO); wheat (WHEA) and RICE, and the weeds giant foxtail (GIFT) and velvetleaf (VELE). The data in the tables below represent averages of two replications.
In this test the crops and weeds were planted 1.3 cm deep in 13.7 cm X 27.7 cm pans containing Dupo silt loam soil. The test safeners were applied in acetone solution and COUNTER 15G as dry granules to soil cover layers and incorporated by shaking in a bag. Treated cover layers were placed on seeded pans which were transferred to greenhouse benches and subirrigated. Herbicide was applied POE six (6) days after PPI initiation and observations of plant injury made ten (10) days later; results are shown in Table 61. The herbicide used in this example was BEACON (No. 8).
In another test in the several crops and weeds used in this test series, the herbicidal component was MON-12000 (No. 1); the other components were the same. the procedure used in this test was the same as that described in Example 62, modified to use a light overhead irrigation (about 0.32 cm/day) during days 4-7 of the test. Table 64 […]

Shattercane (SHCA) = format: in vivo
[1] = Antidote 4.48 + Biocide No. 1 8.96 Kg/Ha PPI, Herb. No. 8 0.07, 5 DAP, before herbicide application
[2] = Antidote 4.48 + Biocide No. 1 8.96 Kg/Ha PPI, Herb. No. 8 0.07 POE, 13 DAP
[3] = Antidote 4.48 + Biocide No. 1 8.96 Kg/Ha PPI, Herbicide No. 7 0.28 POE, 13 days after planting
[4] = Table 14: Herbicide No. 7 (ACCENT) 0.84 Kg/Ha POE + Biocide No. 2 8.96 Kg/Ha PPI + antidote 4.48 Kg/Ha PPI, 13 days after planting, 8 days after herbicide
[5] = […], 13 days after planting, 8 days after herbicide
[6] = […], observed 10 days after herbicide application
[7] = Herbicide No. 11 0.0044 Kg/Ha PPI
[8] = Herbicide No. 12 0.0044 Kg/Ha PPI
[9] = Herbicide No. 13 0.0011 Kg/Ha PPI
[10] = Herbicide No. 13 0.0022 Kg/Ha PPI
[11] = Herbicide No. 14 0.07 Kg/Ha PPI
[12] = Herbicide No. 16 0.07 Kg/Ha PPI, 13 days
[13] = Herbicide No. 17 0.14 Kg/Ha PPI, 13 days
[14] = Herbicide No. 18 0.04 Kg/Ha PPI, 13 days
[15] = Herbicide No. 20 1.12 Kg/Ha PPI, 13 days
[16] = Herbicide No. 22 0.28 Kg/Ha PPI, 13 days
[17] = Herbicide No. 24 0.14 Kg/Ha PPI, 13 days
[18] = Herbicide No. 25 0.14 Kg/Ha PPI, 13 days
[19] = Herbicide No. 26 2.24 Kg/Ha PPI, 13 days
[20] = Herbicide No. 28 0.04 Kg/Ha PPI, 13 days

For `CC1(C)OC(c2ccco2)CN1C(=O)C(Cl)Cl` (stereo not drawn) [Antidote No. 1, Oxazolidine, 3-(dichloroacetyl)-2,2-dimethyl-5-(2-furanyl)-], the “safener efficacy, comparison” value (Corn) was “more effective than flurazole or MON-4660” and the “safening” value (Corn) was “good activity”.
With `O=C(OCc1ccccc1)c1sc(Cl)nc1C(F)(F)F` [Antidote No. 7, 5-Thiazolecarboxylic acid, 2-chloro-4-(trifluoromethyl)-, (phenylmethyl) ester] the “safening” value (Corn) was “less effective than the other safeners”.
For `COC(=O)COC(c1ccccc1)c1ccccc1` [Antidote No. 12, Acetic acid, (diphenylmethoxy)-, methyl ester], the “safener efficacy, comparison” value (Corn) was “more effective than flurazole or MON-4660”, the “safener efficacy” value (Corn; COUNTER 15G + XRD-498/co-herbicide mixture, Example 60) was “most effective safener” and the “safening” value (Corn) was “good activity”.
Compound `COC(=O)c1c(Cl)nn(C)c1S(=O)(=O)NC(=O)Nc1nc(OC)cc(OC)n1` [Herbicide No. 1, N-[(4,6-dimethoxypyrimidin-2-yl)aminocarbonyl]-3-chloro-4-methoxycarbonyl-5-sulfonamide, reference compound] has an inhibition (Velvetleaf (VELE); Table 64, Herb. No. 1 0.018 Kg/Ha + Biocide No. 1 8.96 Kg/Ha) of 75%, an inhibition at 18 g/ha (Velvetleaf (VELE); Table 64) of 70% and an inhibition (Velvetleaf (VELE); Table 64, Herb. No. 1 0.07 Kg/Ha + Biocide No. 1 8.96 Kg/Ha) of 85%. For the same compound, the inhibition at 70 g/ha (Velvetleaf (VELE); Table 64) was 90%, the inhibition (Velvetleaf (VELE); Table 64, Herb. No. 1 0.28 Kg/Ha + Biocide No. 1 8.96 Kg/Ha) was 100% and the inhibition at 280 g/ha (Velvetleaf (VELE); Table 64) was 100%. For the same compound, the inhibition (Velvetleaf (VELE); Table 65, Herb. No. 1 0.018 Kg/Ha + Biocide No. 1 8.96 Kg/Ha) was 10%, the inhibition at 18 g/ha (Velvetleaf (VELE); Table 65) was 15% and the inhibition (Velvetleaf (VELE); Table 65, Herb. No. 1 0.07 Kg/Ha + Biocide No. 1 8.96 Kg/Ha) was 80%. The inhibition at 70 g/ha (Velvetleaf (VELE); Table 65) was 80%, the inhibition (Velvetleaf (VELE); Table 65, Herb. No. 1 0.28 Kg/Ha + Biocide No. 1 8.96 Kg/Ha) was 90% and the inhibition at 280 g/ha (Velvetleaf (VELE); Table 65) was 90%.
With `CC1(C)OC(c2ccco2)CN1C(=O)C(Cl)Cl` (stereo not drawn) [compound 1] the “% Inhibition 5 DAP SHCA” value (Shattercane (SHCA); [1]) was 0%, the “% Inhibition 13 DAP SHCA” value (Shattercane (SHCA); [2]) was 80% and the “% Inhibition SHCA” value (Shattercane (SHCA); [3]) was 75%. For the same compound, the “% Inhibition SHCA” value (Shattercane (SHCA); [4]) was 70%, the “% Inhibition SHCA” value (Shattercane (SHCA); [5]) was 90% and the “% Inhibition SHCA” value (Shattercane (SHCA); […], observed 9 days later (Table 29)) was 70%. The “% Inhibition SHCA” value (Shattercane (SHCA); […], observed 9 days later (Table 30)) was 30%, the “% Inhibition SHCA” value (Shattercane (SHCA); [6]) was 55% and the “% Inhibition 5 DAP SHCA” value (Shattercane (SHCA); in vivo) was 20%. For the same compound, the “% Inhibition 13 DAP SHCA” value (Shattercane (SHCA); in vivo) was 75%, the “% Inhibition Corn” value (Corn; Herbicide No. 6 0.14 Kg/Ha PPI) was 15% and the “% Inhibition Corn” value (Corn; [7]) was 15%. For the same compound, the “% Inhibition Corn” value (Corn; [8]) was 20%, the “% Inhibition Corn” value (Corn; [9]) was 40% and the “% Inhibition Corn” value (Corn; [10]) was 70%. The “% Inhibition Corn” value (Corn; [11]) was 10%, the “% Inhibition Corn” value (Corn; [12]) was 45% and the “% Inhibition Corn” value (Corn; [13]) was 45%. The “% Inhibition Corn” value (Corn; [14]) was 10%, the “% Inhibition Corn” value (Corn; [15]) was 25% and the “% Inhibition Corn” value (Corn; [16]) was 5%. For the same compound, the “% Inhibition Corn” value (Corn; [17]) was 25%, the “% Inhibition Corn” value (Corn; [18]) was 15% and the “% Inhibition Corn” value (Corn; [19]) was 20%. For the same compound, the “% Inhibition Corn” value (Corn; [20]) was 20%, the “% Inhibition VELE” value (Velvetleaf (VELE); Table 64, Herb. No. 1 0.018 Kg/Ha + Biocide No. 1 8.96 Kg/Ha + Antidote 4.48 Kg/Ha) was 65% and the “% Inhibition VELE” value (Velvetleaf (VELE); Table 64, Herb. No. 1 0.07 Kg/Ha + Biocide No. 1 8.96 Kg/Ha + Antidote 4.48 Kg/Ha) was 85%. For the same compound, the “% Inhibition VELE” value (Velvetleaf (VELE); Table 64, Herb. No. 1 0.28 Kg/Ha + Biocide No. 1 8.96 Kg/Ha + Antidote 4.48 Kg/Ha) was 95%, the “% Inhibition VELE” value (Velvetleaf (VELE); Table 65, Herb. No. 1 0.018 Kg/Ha + Biocide No. 1 8.96 Kg/Ha + Antidote 4.48 Kg/Ha) was 10% and the “% Inhibition VELE” value (Velvetleaf (VELE); Table 65, Herb. No. 1 0.07 Kg/Ha + Biocide No. 1 8.96 Kg/Ha + Antidote 4.48 Kg/Ha) was 75%. For the same compound, the “% Inhibition VELE” value (Velvetleaf (VELE); Table 65, Herb. No. 1 0.28 Kg/Ha + Biocide No. 1 8.96 Kg/Ha + Antidote 4.48 Kg/Ha) was 90%.
`N#CCOc1ccc(Cl)c2cccnc12` [compound 33] was tested, and the “% Inhibition 5 DAP SHCA” value (Shattercane (SHCA); [1]) was 20%, the “% Inhibition 13 DAP SHCA” value (Shattercane (SHCA); [2]) was 90% and the “% Inhibition SHCA” value (Shattercane (SHCA); [3]) was 70%. The “% Inhibition SHCA” value (Shattercane (SHCA); [4]) was 75%, the “% Inhibition SHCA” value (Shattercane (SHCA); [5]) was 90% and the “% Inhibition SHCA” value (Shattercane (SHCA); [6]) was 55%. The “% Inhibition 5 DAP SHCA” value (Shattercane (SHCA); in vivo) was 70%, the “% Inhibition 13 DAP SHCA” value (Shattercane (SHCA); in vivo) was 90% and the “% Inhibition Corn” value (Corn; Herbicide No. 6 0.14 Kg/Ha PPI) was 20%. The “% Inhibition Corn” value (Corn; [7]) was 20%, the “% Inhibition Corn” value (Corn; [8]) was 20% and the “% Inhibition Corn” value (Corn; [9]) was 40%. For the same compound, the “% Inhibition Corn” value (Corn; [10]) was 90%, the “% Inhibition Corn” value (Corn; [11]) was 10% and the “% Inhibition Corn” value (Corn; [12]) was 35%. The “% Inhibition Corn” value (Corn; [13]) was 20%, the “% Inhibition Corn” value (Corn; [14]) was 5% and the “% Inhibition Corn” value (Corn; [15]) was 50%. The “% Inhibition Corn” value (Corn; [16]) was 5%, the “% Inhibition Corn” value (Corn; [17]) was 40% and the “% Inhibition Corn” value (Corn; [18]) was 20%. For the same compound, the “% Inhibition Corn” value (Corn; [19]) was 10% and the “% Inhibition Corn” value (Corn; [20]) was 30%.
